Data published in patent publication US20260365696A1, “INHIBITORS OF PTP1B / NCK1 INTERACTION AND METHODS OF MAKING AND USING SAME” (Radella Pharmaceuticals LLC, priority 2023, published 2026).

Biological target: T1, NCK1 SH3-2 domain (human)
T1 chain: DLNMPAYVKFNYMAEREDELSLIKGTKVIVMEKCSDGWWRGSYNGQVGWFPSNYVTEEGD
Assay: ITC
Settings: not given

Row | Molecule | Kd [µM]
1 | Ac-PRPPK-NH2 [MH022] | > 1000
2 | Ac-PPPPRPPKR-NH2 [MH025] | < 300
3 | Ac-RPPK-NH2 [MH016] | > 1000
4 | Ac-IPPPPRPPKR-NH2 [MH026] | < 300
5 | Ac-PPPRPPKR-NH2 [MH024] | < 300
6 | Ac-PPKR-NH2 [MH017] | > 1000
7 | RPP [MH020] | > 1000
8 | PKR [MH014] | > 1000
9 | Ac-PEHIPPPPRPPKR-NH2 [MH029] | < 300
10 | Ac-HIPPPPRPPKR-NH2 [MH027] | < 300
11 | Ac-RPPKR-NH2 [MH018] | > 1000
12 | Ac-PPEHIPPPPRPPKR-NH2 [MH030] | < 300
13 | Ac-EHIPPPPRPPKR-NH2 [MH028] | < 300
14 | PPK [MH015] | > 1000
15 | PRP [MH019] | > 1000
16 | Ac-PRPP-NH2 [MH021] | > 1000

Each molecule was assayed against T2, SH3-2 domain of NCK1 (Homo sapiens, UniProt P16333) (assay: Isothermal titration calorimetry (ITC) binding to NCK1 SH3-2 domain). Settings: Alanine scanning of the MD20 6-mer peptide; ITC, 25 °C, pH 8.0.
T2 construct: To amplify the NCK1 SH3-2 domain, the primers; 10xHis tag with TEV site (vector pSF-OXB20-NH2-10HIS) (N, cleaved yes); made in house; host or cells: E. coli C43(DE3)
Excerpt: Human PTP1B cDNA (NM_002827) and human NCK1 cDNA (NM 006153) were obtained (Origene, MD, USA). PTP1B Primers were designed to amplify the ORFs with added homology to the cut vector (EcoRI-digested pSF-OXB20-NH2-10HIS) in the forward primer sequence. To amplify full-length PTP1B, the primers ptp1b_FL_fwd ([…]) (SEQ ID NO: 159) and ptp1b_FL_rev ([…]) (SEQ ID NO: 160) were used. To amplify truncations of PTP1B, the following primer pairs were used: ptp1b_FL-Fwd and one of Ptplb_323stop_rev (gtgcaggaggagttcgaatt[…]) (SEQ ID NO: 161), ptp1b_344stop_rev ([…]) (SEQ ID NO: 162) or ptp1b_278stop_rev([…]) (SEQ ID NO: 163). To amplify the NCK1 SH3-2 domain, the primers ncklsh32_fwd ([…]) (SEQ ID NO: 164) and ncklsh32_rev ([…]) (SEQ ID NO: 165) were used. The amplified fragments were purified using a DNA clean-up kit according to manufacturer's instructions (QIAquick PCR purification kit, Qiagen).
To produce and purify fusion proteins, a culture was inoculated with 1% of overnight-cultured inoculum. Protein expression was carried out under the conditions described above, scaled up as necessary. Cells expressing the recombinant proteins were harvested in 50 mL tubes by centrifugation and stored at −80 °C. Cells containing the expressed gene product were thawed over ice and resuspended in Extraction buffer (10 mM Tris, pH 7.4 or 10 mM Sodium Phosphate, pH 8.0; 300 mM NaCl, 1 mM DTT or TCEP; 0-10% glycerol and 1 μg lysozyme) and sonicated over ice (4 °C) for 3 min total using pulses of 5 s with 15 s intervals, using a wide probe at 15 amplitude microns (Soniprep 150, MSE). Insoluble material was removed from the lysate by centrifugation at 20K rpm for 20-60 min at 4 °C. Supernatant was filtered through a 0.22 μm PVDF filter membrane and applied to 1-2 5 mL HisTrap FF Crude (Cytiva) prepacked Ni columns and connected to an AKTA explorer. After thorough washing with binding buffer (10 mM Tris, pH 7.4 or 10 mM Sodium Phosphate, pH 8.0; 300 mM NaCl; 1 mM DTT or TCEP and 25 mM Imidazole), protein was eluted using elution buffer (10 mM Tris, pH 7.4 or 10 mM Sodium Phosphate, pH 8.0; 150-300 mM NaCl; 1 mM DTT or TCEP and 250 mM Imidazole). Fractions containing protein of interest were confirmed by SDS PAGE. Protein was diluted with GF buffer (10 mM Tris, pH 7.4 or 10 mM Sodium Phosphate, pH 8.0; 150-300 mM NaCl) and subjected to TEV protease treatment overnight at 4-10 °C. Following proteolytic digestion, HIS-tag and TEV protease were removed by filtration through a clean 5 mL HisTrap FF Crude (Cytiva) prepacked Ni column. Protein was concentrated on a PES ultrafiltration device by centrifugation at 4000 rpm at 4 °C, and protein was polished via a HiPrep S-100 26/60 (Cytiva) using GF buffer (as described above). Purified proteins were concentrated using ultrafiltration, and protein concentration was determined using ultraviolet-visible spectroscopy. The integrity and identity of all proteins were verified by mass spectrographic analysis.
Isothermal titration calorimetry (ITC) was used to determine binding affinities for peptides against the SH3-2 domain of NCK1. Experiments were conducted at 25 °C using either a MicroCal iTC200 or MicroCal PEAQ-ITC calorimeter. The buffer used for all ITC experiments was 10 mM sodium [COMPOUND LEFT OUT] mM sodium chloride (pH=8.0). A series of peptides (concentration 3-7.5 mM) were titrated in to NCK1 SH3-2 domain (concentration 0.125-0.3 mM) using the following conditions: one injection of 0.2 μL followed by 19 injections of 2 μL, 120-150 seconds spacing between injections, at 25 °C. The data were fit using analysis software provided by the manufacturer and affinity values were calculated. The best fitting occurred when the number of sites was between 0.8 and 1.2. The experiments were repeated twice for a total of three times, and the average binding affinity for each peptide was generated. […]

Row | Molecule | Kd [µM]
17 | Ac-PRAPKR-NH2 [MH010, Ac-PRAPKR-NH2] | > 1000
18 | Ac-PRPAKR-NH2 [MH011, Ac-PRPAKR-NH2] | > 1000
19 | Ac-PRPPAR-NH2 [MH012, Ac-PRPPAR-NH2] | 300 to 600
20 | Ac-PRPPKA-NH2 [MH013, Ac-PRPPKA-NH2] | > 1000

Same assay, conditions: ITC

Row | Molecule | binding to NCK1 SH3-2 domain (in words)
21 | Ac-PRPPK-NH2 [MH022, Ac-PRPPK-NH2] | abolished binding
22 | Ac-PRPPKA-NH2 [MH013, Ac-PRPPKA-NH2] | abolished binding

Same assay, conditions: Modified MD18/MD20 peptides; ITC, 25 °C, pH 8.0

Row | Molecule | Kd [µM]
23 | H-PPRPPKR-NH2 [MH075, H-PPRPPKR-NH2] | ≤ 300
24 | H-PRPPKR-NH2 [MH080, H-PRPPKR-NH2] | > 1000

Same assay, conditions: N- or C-terminal extensions; ITC, 25 °C, pH 8.0; 30-mers tested one to three times

Row | Molecule | Kd [µM]
25 | Ac-SVQDQWKELSHEDLEPPPEHIPPPPRPPKR-NH2 [MH136] | ≤ 300
26 | Ac-WKELSHEDLEPPPEHIPPPPRPPKR-NH2 [MH135] | ≤ 300

Same assay, conditions: Peptide truncation analysis; ITC, 25 °C, pH 8.0

Row | Molecule | Kd [µM]
27 | Ac-PRPPK-NH2 [MH022, Ac-PRPPK-NH2] | > 1000
28 | Ac-RPPKR-NH2 [MH018, Ac-RPPKR-NH2] | > 1000

Same assay, conditions: exemplary control peptides; ITC, 25 °C, pH 8.0

Row | Molecule | Kd [µM]
29 | Ac-SPAKGEPSLPEK-NH2 [MH133, reference compound] | > 1000
30 | H-PAVPPRP-NH2 [MH081, H-PAVPPRP-NH2, reference compound] | > 1000

Same assay, conditions: substitutions at position 1 of MD18; ITC, 25 °C, pH 8.0

Row | Molecule | Kd [µM]
31 | Ac-QPRPPKR-NH2 [MH086, Ac-QPRPPKR-NH2] | ≤ 300
32 | Ac-RPRPPKR-NH2 [MH068, Ac-RPRPPKR-NH2] | ≤ 300
33 | Ac-SPRPPKR-NH2 [MH074, Ac-SPRPPKR-NH2] | ≤ 300
34 | Ac-TPRPPKR-NH2 [MH113, Ac-TPRPPKR-NH2] | ≤ 300
35 | Ac-VPRPPKR-NH2 [MH123, Ac-VPRPPKR-NH2] | ≤ 300
36 | Ac-WPRPPKR-NH2 [MH117, Ac-WPRPPKR-NH2] | ≤ 300
37 | Ac-YPRPPKR-NH2 [MH119, Ac-YPRPPKR-NH2] | ≤ 300

Same assay, conditions: substitutions at position 3 of MD18; ITC, 25 °C, pH 8.0

Row | Molecule | Kd [µM]
38 | Ac-PPSPPKR-NH2 [MH059, Ac-PPSPPKR-NH2] | ≤ 300
39 | Ac-PPTPPKR-NH2 [MH114, Ac-PPTPPKR-NH2] | ≤ 300
40 | Ac-PPVPPKR-NH2 [MH124, Ac-PPVPPKR-NH2] | ≤ 300
41 | Ac-PPWPPKR-NH2 [MH056, Ac-PPWPPKR-NH2] | 300 to 600
42 | Ac-PPYPPKR-NH2 [MH120, Ac-PPYPPKR-NH2] | ≤ 300

Same assay, conditions: substitutions at position 4 of MD18 in a 7-mer; ITC, 25 °C, pH 8.0

Row | Molecule | Kd [µM]
43 | Ac-PPRQPKR-NH2 [MH131, Ac-PPRQPKR-NH2] | > 1000
44 | Ac-PPRRPKR-NH2 [MH062, Ac-PPRRPKR-NH2] | 300 to 600
45 | Ac-PPRSPKR-NH2 [MH108, Ac-PPRSPKR-NH2] | > 1000
46 | Ac-PPRTPKR-NH2 [MH115, Ac-PPRTPKR-NH2] | 300 to 600
47 | Ac-PPRVPKR-NH2 [MH125, Ac-PPRVPKR-NH2] | ≤ 300
48 | Ac-PPRWPKR-NH2 [MH118, Ac-PPRWPKR-NH2] | > 1000
49 | Ac-PPRYPKR-NH2 [MH121, Ac-PPRYPKR-NH2] | 300 to 600

Biological target: T1, NCK1 SH3-2 domain
Assay: ITC
Settings: not given
Remark: another data set of the same source

Row | Molecule | Kd [µM]
50 | Ac-LPRPPKR-NH2 [MH099] | < 600
51 | Ac-IPRPPKR-NH2 [MH095] | < 300
52 | Ac-YPRPPKR-NH2 [MH119] | < 300
53 | Ac-SPRPPKR-NH2 [MH074] | < 300
54 | Ac-GPRPPKR-NH2 [MH091] | < 300
55 | Ac-NPRPPKR-NH2 [MH069] | < 300
56 | Ac-HPRPPKR-NH2 [MH072] | < 300
57 | Ac-WPRPPKR-NH2 [MH117] | < 300
58 | Ac-KPRPPKR-NH2 [MH103] | < 300
59 | Ac-CPRPPKR-NH2 [MH070] | < 300
60 | Ac-QPRPPKR-NH2 [MH086] | < 300
61 | Ac-DPRPPKR-NH2 [MH083] | < 300
62 | Ac-MPRPPKR-NH2 [MH109] | < 300
